Here are results for 9 compounds from patent publication US12344603B2 (Genentech, Inc., priority 2020, dated 2025).

Chain of IRE1α (O75460 547-977 D688N): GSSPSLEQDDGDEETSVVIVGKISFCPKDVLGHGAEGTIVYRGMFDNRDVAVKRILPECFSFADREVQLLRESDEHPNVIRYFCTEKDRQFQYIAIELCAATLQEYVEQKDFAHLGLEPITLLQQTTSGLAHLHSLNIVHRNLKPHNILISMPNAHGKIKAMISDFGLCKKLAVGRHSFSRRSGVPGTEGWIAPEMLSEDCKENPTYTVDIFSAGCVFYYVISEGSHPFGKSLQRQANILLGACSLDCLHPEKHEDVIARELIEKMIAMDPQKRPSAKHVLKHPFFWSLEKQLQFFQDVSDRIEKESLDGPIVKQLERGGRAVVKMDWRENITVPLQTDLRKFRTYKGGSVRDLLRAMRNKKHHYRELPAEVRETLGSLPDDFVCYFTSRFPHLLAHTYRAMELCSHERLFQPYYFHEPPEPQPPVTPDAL

The assay has as its target IRE1α (Homo sapiens (Human), UniProt O75460, D688N). Kind of assay: IRE1α TR-FRET competition binding assay (IRE1α HTRF). The settings on record: TR-FRET competition binding to kinase domain of IRE1α. The method in brief: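 Competition of compounds against an Alexa fluor 647 ATP-site probe (2 nM final) for the His-tagged kinase domain (0.25 nM final), detected via 2 nM Eu anti-His antibody by TR-FRET, 665 and 615 nm emission. Protein–antibody premix 1 h, 4° C; reaction 1 h, room temperature, pH 7.5 HEPES buffer.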
On the technique in general: In TR-FRET formats the signal depends on donor and acceptor labels being close together.
As a reminder, the IC50 is the concentration at which inhibition is half-maximal. `CC(C)n1c(=O)c(-c2ccc(NS(=O)(=O)c3ccccc3C#N)nc2)cc2cnc(N[C@H]3CC[C@H](N(C)CCF)CC3)nc21` [Compound 148, 2-Cyano-N-(5-(2-(((1r,4r)-4-((2-fluoroethyl)(methyl)amino)cyclohexyl)amino)-8-isopropyl-7-oxo-7,8-dihydropyrido[2,3-d]pyrimidin-6-yl)pyridin-2-yl)benzenesulfonamide]: the IC50 worked out at 230 pM. In the case of `CC(C)n1c(=O)c(-c2ccc(NS(=O)(=O)c3ccccc3OC(F)(F)F)nc2)cc2cnc(N[C@H]3CC[C@H](N(C)C)CC3)nc21` [Compound 150, N-(5-(2-(((1r,4r)-4-(Dimethylamino)cyclohexyl)amino)-8-isopropyl-7-oxo-7,8-dihydropyrido[2,3-d]pyrimidin-6-yl)pyridin-2-yl)-2-(trifluoromethoxy)benzenesulfonamide] it was 260 pM; in that of `CC(C)n1c(=O)c(-c2ccc(NS(=O)(=O)CC3CC(F)(F)C3)c(F)c2)cc2cnc(N[C@H]3CC[C@H](N(C)C)CC3)nc21` [Compound 151, 1-(3,3-Difluorocyclobutyl)-N-(4-(2-(((1r,4r)-4-(dimethylamino)cyclohexyl)amino)-8-isopropyl-7-oxo-7,8-dihydropyrido[2,3-d]pyrimidin-6-yl)-2-fluorophenyl)methanesulfonamide], 190 pM.

Turning to `CC(C)n1c(=O)c(-c2ccc(NS(=O)(=O)CC3CCCCC3)nc2)cc2cnc(N[C@H]3CC[C@H](N(C)C)CC3)nc21` [Compound 152, 1-Cyclohexyl-N-(5-(2-(((1r,4r)-4-(dimethylamino)cyclohexyl)amino)-8-isopropyl-7-oxo-7,8-dihydropyrido[2,3-d]pyrimidin-6-yl)pyridin-2-yl)methanesulfonamide], the IC50 came out at 180 pM.

`CC(C)n1c(=O)c(-c2ccc(NS(=O)(=O)Cc3ccc(F)cc3)c(F)c2)cc2cnc(N[C@H]3CC[C@H](N(C)CCF)CC3)nc21` [Compound 155, N-(2-Fluoro-4-(2-(((1r,4r)-4-((2-fluoroethyl)(methyl)amino)cyclohexyl)amino)-8-isopropyl-7-oxo-7,8-dihydropyrido[2,3-d]pyrimidin-6-yl)phenyl)-1-(4-fluorophenyl)methanesulfonamide]: the IC50 is 230 pM. In turn, `CC(C)n1c(=O)c(-c2ccc(NS(=O)(=O)CC3CC(F)(F)C3)c(F)c2)cc2cnc(N[C@H]3CC[C@H](N(C)CCF)CC3)nc21` [Compound 156, 1-(3,3-Difluorocyclobutyl)-N-(2-fluoro-4-(2-(((1r,4r)-4-((2-fluoroethyl)(methyl)amino)cyclohexyl)amino)-8-isopropyl-7-oxo-7,8-dihydropyrido[2,3-d]pyrimidin-6-yl)phenyl)methanesulfonamide] yielded a concentration for half-maximal inhibition (IC50) of 180 pM. The result for `CC(C)n1c(=O)c(-c2ccc(NS(=O)(=O)CCC(F)(F)F)c(F)c2)cc2cnc(N[C@H]3CC[C@H](N(C)CCF)CC3)nc21` [Compound 157, 3,3,3-trifluoro-N-(2-Fluoro-4-(2-(((1r,4r)-4-((2-fluoroethyl)(methyl)amino)cyclohexyl)amino)-8-isopropyl-7-oxo-7,8-dihydropyrido[2,3-d]pyrimidin-6-yl)phenyl)propane-1-sulfonamide] reads 140 pM; that for `CC(C)n1c(=O)c(-c2cc(F)c(NS(=O)(=O)Cc3ccn(CC(F)(F)F)n3)c(F)c2F)cc2cnc(N[C@@H]3CNC[C@@H](F)C3)nc21` [Compound 158, N-(2,3,6-Trifluoro-4-(2-(((3S,5S)-5-fluoropiperidin-3-yl)amino)-8-isopropyl-7-oxo-7,8-dihydropyrido[2,3-d]pyrimidin-6-yl)phenyl)-1-(1-(2,2,2-trifluoroethyl)-1H-pyrazol-3-yl)methanesulfonamide], 570 pM; that for `CCCS(=O)(=O)Nc1ccc(-c2nc3cnc(N[C@H]4CC[C@H](N(C)C)CC4)nc3n(C(C)C)c2=O)c(F)c1` [Compound 161, N-(4-(2-(((1r,4r)-4-(Dimethylamino)cyclohexyl)amino)-8-isopropyl-7-oxo-7,8-dihydropteridin-6-yl)-3-fluorophenyl)propane-1-sulfonamide], 180 pM.
